According to US8273754B2, “Substituted 1H-pyrazolo[3,4-D]pyrimidine-6-amine compounds” (ArQule, Inc., priority 2008, dated 2012):
Read-outs that look alike come from different tables or passages of the source.

What was measured:
[1] = tested on: cancer cells; test: MTS cell growth inhibition assay (72 hours); type: cell-based
Summary of the method: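 Growth inhibition read as formazan absorbance at 492 nm after 4 h MTS/PMS, following 72 h compound exposure at 37 °C in 1% FBS DMEM (cells pre-seeded 18 h). IC50 = 50% absorbance reduction; inhibition graded in bands.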

[2] = target: T1, FGFR2 (N549H) (Homo sapiens, UniProt P21802, N549H); test: fluorescent ELISA assay for inhibitors of FGFR2 kinase; type: biochemical; details: Pyk2 peptide substrate, 60 minutes
T1 construct: purchased Millipore 14-742
T1 sequence (P21802 22-821 N549H): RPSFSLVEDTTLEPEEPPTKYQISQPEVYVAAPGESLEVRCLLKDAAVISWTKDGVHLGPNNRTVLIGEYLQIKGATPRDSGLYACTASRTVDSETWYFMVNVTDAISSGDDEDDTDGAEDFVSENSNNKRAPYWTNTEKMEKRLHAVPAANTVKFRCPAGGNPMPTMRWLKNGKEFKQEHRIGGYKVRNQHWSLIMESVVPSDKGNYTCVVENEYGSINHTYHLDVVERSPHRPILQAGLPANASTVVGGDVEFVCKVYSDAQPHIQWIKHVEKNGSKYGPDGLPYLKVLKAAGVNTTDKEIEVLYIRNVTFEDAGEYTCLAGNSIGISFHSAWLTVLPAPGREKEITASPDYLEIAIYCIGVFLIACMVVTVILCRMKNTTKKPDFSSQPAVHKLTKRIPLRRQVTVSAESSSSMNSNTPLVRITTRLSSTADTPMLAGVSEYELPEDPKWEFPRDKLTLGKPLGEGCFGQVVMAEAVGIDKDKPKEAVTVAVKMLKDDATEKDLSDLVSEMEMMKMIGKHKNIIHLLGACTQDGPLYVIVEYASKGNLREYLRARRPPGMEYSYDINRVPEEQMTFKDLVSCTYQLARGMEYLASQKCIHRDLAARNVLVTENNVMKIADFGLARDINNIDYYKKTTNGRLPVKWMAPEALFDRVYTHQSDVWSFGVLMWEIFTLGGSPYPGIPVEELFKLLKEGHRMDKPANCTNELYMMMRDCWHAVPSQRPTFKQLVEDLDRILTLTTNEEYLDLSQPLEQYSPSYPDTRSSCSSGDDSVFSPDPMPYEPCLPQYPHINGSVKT
Experimental: The enzymatic assays described herein are conducted according to the following procedures from commercially available reagents. In one non-limiting example, a fluorescent ELISA assay is used to identify and characterize inhibitors of FGFR2 kinase as described herein. This heterogeneous assay utilizes a biotinylated peptide with a tyrosine motif as a substrate and an anti-phospho-tyrosine antibody to measure phosphorylation of the substrate. The reaction is initiated by adding the test compound, 37 μM Pyk2 substrate (Midwest Biotech, Cat. #MBT2383), 12.5 μM ATP (Roche, Cat. #11 140 965 001) and 0.5 μM FGFR2 enzyme (Millipore, Cat. #14-742) sequentially to a non-binding polypropylene V-well plate. All reagents are in an assay buffer consisting of: 50 mM Tris-HCL, 0.02 mg/ml BSA, 10 mM MgCl2, 0.1 mM Na3VO4, 1 mM EGTA, 75 μM ATP, 0.01% NP-40, 2 mM DTT and 10% glycerol. The reaction is incubated for 60 minutes. As the reaction proceeds, FGFR2 phosphorylates tyrosines in the peptide. The reaction mixture is then moved to a blocked streptavidin-coated Nunc Maxisorb plate (coated with 100 ng streptavidin from Pierce (Cat. #15-124) per well), allowing for the capture of the biotinylated peptide. Peptides are captured for 30 minutes at room temperature, the phosphorylation of peptides continues during this phase. The reaction is stopped by washing the streptavidin-coated plate 6 times with TBST. Phosphorylated peptide is detected by adding anti-phospho-tyrosine antibody (Cell Signaling, Cat. #9411, diluted 1:3000) to the streptavidin-coated plate. Unbound anti-phospho-tyrosine antibody is removed by washing the streptavidin-coated plate 6 times with TBST. Secondary detection is performed using alkaline phosphatase tagged goat anti-mouse antibody (Pierce, Cat. #31320, diluted 1:4000) for one hour. Unbound secondary antibody is removed by washing the streptavidin-coated plate 6 times with TBST. The fluorescent readout is initiated by adding to the streptavidin-coated plate Promega Attophos substrate (Promega, Cat. #S1000, dilution=6 mg/10 ml), which, when dephosphorylated by alkaline phosphatase, emits a fluorescent signal of 595 nm in wavelength when excited by a signal of 400 nm in wavelength. The reading of the 595 nm signal is done on the Perkin Elmer Envision system. Compounds which prevent FGFR2 from phosphorylating the peptide result in a lower fluorescent signal. The 595 nm fluorescent signal is directly proportional to the activity of FGFR2. Thus, the inhibition of FGFR2 by compounds is monitored by the decrease in the 595 nm fluorescent signal.

[3] = Homo sapiens, DLD-1, 72 h, DLD-1 cells, read-out: DLD-1 MTS 72 hr at 10 μM
[4] = Homo sapiens, KATO III, 72 h, KATO III cells, read-out: KATO III MTS 72 hr at 10 μM
[5] = Homo sapiens, MDA-MB-231, 72 h, MDA-MB-231 cells, read-out: MDA-MB-231 MTS 72 hr at 10 μM
[6] = Homo sapiens, NCI-H1299, 72 h, NCI-H1299 cells, read-out: NCI-H1299 MTS 72 hr at 10 μM
[7] = PaCa-2, 72 h, PACA-2 cells, read-out: PACA-2 MTS 72 hr at 10 μM

| IC50 [2] [µM] | Structure (SMILES) | inhibition at 10 µM [1, 3] [%] | inhibition at 10 µM [1, 4] [%] | inhibition at 10 µM [1, 5] [%] | inhibition at 10 µM [1, 6] [%] | inhibition at 10 µM [1, 7] [%] |
| --- | --- | --- | --- | --- | --- | --- |
| 7.83 | Nc1nc(NC2Cc3ccccc3N(CCc3ccc(Cl)cc3Cl)C2)c2cn[nH]c2n1 (stereo not shown) [Compound 3, N^4-(1-(2-(2,4-dichlorophenyl)ethyl)-1,2,3,4-tetrahydroquinolin-3-yl)-1H-pyrazolo[3,4-d]pyrimidine-4,6-diamine] | > 79 | > 79 | > 79 | > 79 | > 79 |
| 0.37 | Nc1nc(NC2Cc3ccccc3N(S(=O)(=O)c3cccc(F)c3)C2)c2cn[nH]c2n1 (stereo not shown) [Compound 18, N4-(1-(3-fluorophenylsulfonyl)-1,2,3,4-tetrahydroquinolin-3-yl)-1H-pyrazolo[3,4-d]pyrimidine-4,6-diamine] | < 50 | < 50 | < 50 | < 50 | < 50 |
| > 30 | COc1ccc(OC)c(CN2CC(Nc3nc(N)nc4[nH]ncc34)Cc3ccccc32)c1 (stereo not shown) [Compound 121, N4-(1-(2,5-dimethoxybenzyl)-1,2,3,4-tetrahydroquinolin-3-yl)-1H-pyrazolo[3,4-d]pyrimidine-4,6-diamine] | < 50 | > 79 | < 50 | < 50 | < 50 |
| 2.23 | Nc1nc(NC2Cc3ccccc3N(Cc3cccc(F)c3)C2)c2cn[nH]c2n1 (stereo not shown) [Compound 128, N4-[1-(3-fluorobenzyl)-1,2,3,4-tetrahydroquinolin-3-yl]-1H-pyrazolo[3,4-d]pyrimidine-4,6-diamine] | < 50 | 50 to 79 | < 50 | < 50 | 50 to 79 |
| 1.55 | CN(c1nc(N)nc2[nH]ncc12)C1Cc2ccccc2N(Cc2ccc(Cl)c(Cl)c2)C1 (stereo not shown) [Compound 10, N^4-(1-(3,4-dichlorobenzyl)-1,2,3,4-tetrahydroquinolin-3-yl)-N^4-methyl-1H-pyrazolo[3,4-d]pyrimidine-4,6-diamine] | < 50 | 50 to 79 | < 50 | < 50 | < 50 |
| 1.2 | Nc1nc(NC2Cc3ccccc3N(S(=O)(=O)c3ccccc3Cl)C2)c2cn[nH]c2n1 (stereo not shown) [Compound 52, N4-(1-(2-chlorophenylsulfonyl)-1,2,3,4-tetrahydroquinolin-3-yl)-1H-pyrazolo[3,4-d]pyrimidine-4,6-diamine] | < 50 | < 50 | < 50 | < 50 | < 50 |
| 2.58 | Nc1nc(NC2Cc3ccccc3N(S(=O)(=O)c3cccs3)C2)c2cn[nH]c2n1 (stereo not shown) [Compound 23, N4-(1-(thiophen-2-ylsulfonyl)-1,2,3,4-tetrahydroquinolin-3-yl)-1H-pyrazolo[3,4-d]pyrimidine-4,6-diamine] | < 50 | < 50 | < 50 | < 50 | < 50 |
| 11 | COc1cccc(CN2CC(Nc3nc(N)nc4[nH]ncc34)Cc3ccccc32)c1 (stereo not shown) [Compound 127, N4-[1-(3-methoxybenzyl)-1,2,3,4-tetrahydroquinolin-3-yl]-1H-pyrazolo[3,4-d]pyrimidine-4,6-diamine] | < 50 | 50 to 79 | < 50 | < 50 | 50 to 79 |
| 22.3 | COc1ccccc1CN1CC(Nc2nc(N)nc3[nH]ncc23)Cc2ccccc21 (stereo not shown) [Compound 132, N4-[1-(2-methoxybenzyl)-1,2,3,4-tetrahydroquinolin-3-yl]-1H-pyrazolo[3,4-d]pyrimidine-4,6-diamine] | < 50 | < 50 | < 50 | < 50 | < 50 |
| > 30 | CC(=O)Nc1ccc(S(=O)(=O)N2CC(Nc3nc(N)nc4[nH]ncc34)Cc3ccccc32)cc1 (stereo not shown) [Compound 40, N-(4-(3-(6-amino-1H-pyrazolo[3,4-d]pyrimidin-4-ylamino)-3,4-dihydroquinolin-1(2H)-ylsulfonyl)phenyl)acetamide] | < 50 | < 50 | < 50 | < 50 | < 50 |
| 21.5 | Nc1nc(NC2Cc3ccccc3N(S(=O)(=O)c3cccc4cccnc34)C2)c2cn[nH]c2n1 (stereo not shown) [Compound 28, N4-(1-(quinolin-8-ylsulfonyl)-1,2,3,4-tetrahydroquinolin-3-yl)-1H-pyrazolo[3,4-d]pyrimidine-4,6-diamine] | < 50 | < 50 | < 50 | < 50 | < 50 |
| > 30 | Cn1ccc(S(=O)(=O)N2CC(Nc3nc(N)nc4[nH]ncc34)Cc3ccccc32)n1 (stereo not shown) [Compound 54, N4-(1-(1-methyl-1H-pyrazol-3-ylsulfonyl)-1,2,3,4-tetrahydroquinolin-3-yl)-1H-pyrazolo[3,4-d]pyrimidine-4,6-diamine] | < 50 | < 50 | < 50 | < 50 | < 50 |
| 13 | Nc1nc(NC2Cc3ccccc3N(S(=O)(=O)c3c(F)cccc3F)C2)c2cn[nH]c2n1 (stereo not shown) [Compound 58, N4-(1-(2,6-difluorophenylsulfonyl)-1,2,3,4-tetrahydroquinolin-3-yl)-1H-pyrazolo[3,4-d]pyrimidine-4,6-diamine] | < 50 | < 50 | < 50 | < 50 | < 50 |
| 1.33 | Nc1nc(NC2Cc3ccccc3N(Cc3ccc(F)c(F)c3)C2)c2cn[nH]c2n1 (stereo not shown) [Compound 124, N4-[1-(3,4-difluorobenzyl)-1,2,3,4-tetrahydroquinolin-3-yl]-1H-pyrazolo[3,4-d]pyrimidine-4,6-diamine] |  |  |  |  |  |
|  | Nc1nc(NC2Cc3ccccc3N(S(=O)(=O)c3cccc(NC(=O)Nc4cc(F)cc(C(F)(F)F)c4)c3)C2)c2cn[nH]c2n1 (stereo not shown) [Compound 217, 1-[3-({3-[(6-amino-1H-pyrazolo[3,4-d]pyrimidin-4-yl)amino]-3,4-dihydroquinolin-1(2H)-yl}sulfonyl)phenyl]-3-[3-fluoro-5-(trifluoromethyl)phenyl]urea] | > 79 | > 79 | > 79 | > 79 | > 79 |
|  | Nc1nc(NC2Cc3ccccc3N(S(=O)(=O)c3cccc(NC(=O)Nc4ccc(C(F)(F)F)cc4)c3)C2)c2cn[nH]c2n1 (stereo not shown) [Compound 209, 1-[3-({3-[(6-amino-1H-pyrazolo[3,4-d]pyrimidin-4-yl)amino]-3,4-dihydroquinolin-1(2H)-yl}sulfonyl)phenyl]-3-[4-(trifluoromethyl)phenyl]urea] | > 79 | > 79 | > 79 | > 79 | > 79 |
|  | CC1(C(=O)N2CC(Nc3nc(N)nc4[nH]ncc34)Cc3ccccc32)CCCCC1 (stereo not shown) [Compound 96, (3-(6-amino-1H-pyrazolo[3,4-d]pyrimidin-4-ylamino)-3,4-dihydroquinolin-1(2H)-yl)(1-methylcyclohexyl)methanone] | < 50 | < 50 | < 50 | < 50 | < 50 |
